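Method: 48-hour compound exposure of cells in 96-well plates, five concentrations, linear interpolation of endpoints. GI50 = concentration required for 50% inhibition of growth. At the TGI there is no net growth.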
Assays:
Experiment in all cases: NCI anticancer screen, dose series, 48 h
786-0 renal = test system: 786-0 renal
A498 renal = test system: A498 renal
A549 NSCLC = test system: A549 NSCLC
ACHN renal = test system: ACHN renal
BT-549 breast = test system: BT-549 breast
CAKI-1 renal = test system: CAKI-1 renal
CCRF-CEM leukemia = test system: CCRF-CEM leukemia
COLO 205 colon = test system: COLO 205 colon
DU-145 prostate = test system: DU-145 prostate
EKVX NSCLC = test system: EKVX NSCLC
HCC-2998 colon = test system: HCC-2998 colon
HCT-116 colon = test system: HCT-116 colon
HCT-15 colon = test system: HCT-15 colon
HL-60(TB) leukemia = test system: HL-60(TB) leukemia
HOP-62 NSCLC = test system: HOP-62 NSCLC
HOP-92 NSCLC = test system: HOP-92 NSCLC
HS 578T breast = test system: HS 578T breast
HT29 colon = test system: HT29 colon
IGROV1 ovarian = test system: IGROV1 ovarian
K-562 leukemia = test system: K-562 leukemia
KM12 colon = test system: KM12 colon
LOX IMVI melanoma = test system: LOX IMVI melanoma
M14 melanoma = test system: M14 melanoma
MCF7 breast = test system: MCF7 breast
MDA-MB-231 breast = test system: MDA-MB-231 breast
MDA-MB-435 = test system: MDA-MB-435
MOLT-4 leukemia = test system: MOLT-4 leukemia
NCI-H226 lung = test system: NCI-H226 lung
NCI-H23 lung = test system: NCI-H23 lung
NCI-H460 lung = test system: NCI-H460 lung
NCI-H522 lung = test system: NCI-H522 lung
NCI/ADR-RES ovarian = test system: NCI/ADR-RES ovarian
OVCAR-3 ovarian = test system: OVCAR-3 ovarian
OVCAR-4 ovarian = test system: OVCAR-4 ovarian
OVCAR-5 ovarian = test system: OVCAR-5 ovarian
OVCAR-8 ovarian = test system: OVCAR-8 ovarian
PC-3 prostate = test system: PC-3 prostate
RPMI-8226 leukemia = test system: RPMI-8226 leukemia
RXF 393 renal = test system: RXF 393 renal
SF-268 CNS = test system: SF-268 CNS
SF-295 CNS = test system: SF-295 CNS
SF-539 CNS = test system: SF-539 CNS
SK-MEL-2 melanoma = test system: SK-MEL-2 melanoma
SK-MEL-28 melanoma = test system: SK-MEL-28 melanoma
SK-MEL-5 melanoma = test system: SK-MEL-5 melanoma
SK-OV-3 ovarian = test system: SK-OV-3 ovarian
SN12C renal = test system: SN12C renal
SNB-19 CNS = test system: SNB-19 CNS
SNB-75 CNS = test system: SNB-75 CNS
SR leukemia = test system: SR leukemia
SW-620 colon = test system: SW-620 colon
T-47D breast = test system: T-47D breast
TK-10 renal = test system: TK-10 renal
U251 CNS = test system: U251 CNS
UACC-257 melanoma = test system: UACC-257 melanoma
UACC-62 melanoma = test system: UACC-62 melanoma
UO-31 renal = test system: UO-31 renal

SMILES: N#Cc1c(N/N=C\c2ccc(Cl)cc2)nc(N)nc1N1CCOCC1
- GI50 (786-0 renal): 67.1 µM
- TGI (786-0 renal): > 100 µM
- GI50 (A498 renal): 25.5 µM
- TGI (A498 renal): 69.2 µM
- GI50 (A549 NSCLC): 29.6 µM
- TGI (A549 NSCLC): > 100 µM
- GI50 (ACHN renal): 23.1 µM
- TGI (ACHN renal): 92.6 µM
- GI50 (BT-549 breast): > 100 µM
- TGI (BT-549 breast): > 100 µM
- GI50 (CAKI-1 renal): 43.3 µM
- TGI (CAKI-1 renal): > 100 µM
- GI50 (CCRF-CEM leukemia): 25.8 µM
- TGI (CCRF-CEM leukemia): 78.9 µM
- GI50 (COLO 205 colon): 66.2 µM
- TGI (COLO 205 colon): > 100 µM
- GI50 (DU-145 prostate): 28.8 µM
- TGI (DU-145 prostate): > 100 µM
- GI50 (EKVX NSCLC): 93.9 µM
- TGI (EKVX NSCLC): > 100 µM
- GI50 (HCC-2998 colon): 22 µM
- TGI (HCC-2998 colon): > 100 µM
- GI50 (HCT-116 colon): 29.7 µM
- TGI (HCT-116 colon): > 100 µM
- GI50 (HCT-15 colon): 26.7 µM
- TGI (HCT-15 colon): 97.3 µM
- GI50 (HL-60(TB) leukemia): 9.84 µM
- TGI (HL-60(TB) leukemia): 27.2 µM
- GI50 (HOP-62 NSCLC): 86.6 µM
- TGI (HOP-62 NSCLC): > 100 µM
- GI50 (HOP-92 NSCLC): 36.3 µM
- TGI (HOP-92 NSCLC): > 100 µM
- GI50 (HS 578T breast): 41.1 µM
- TGI (HS 578T breast): > 100 µM
- GI50 (HT29 colon): 26.7 µM
- TGI (HT29 colon): > 100 µM
- GI50 (IGROV1 ovarian): 26 µM
- TGI (IGROV1 ovarian): 97.4 µM
- GI50 (K-562 leukemia): 13 µM
- TGI (K-562 leukemia): 32.3 µM
- GI50 (KM12 colon): 36.1 µM
- TGI (KM12 colon): > 100 µM
- GI50 (LOX IMVI melanoma): 21.6 µM
- TGI (LOX IMVI melanoma): 62.4 µM
- GI50 (M14 melanoma): 67.4 µM
- TGI (M14 melanoma): > 100 µM
- GI50 (MCF7 breast): 77.3 µM
- TGI (MCF7 breast): > 100 µM
- GI50 (MDA-MB-231 breast): 25.3 µM
- TGI (MDA-MB-231 breast): > 100 µM
- GI50 (MDA-MB-435): 35 µM
- TGI (MDA-MB-435): > 100 µM
- GI50 (MOLT-4 leukemia): 13.6 µM
- TGI (MOLT-4 leukemia): 34.4 µM
- GI50 (NCI-H226 lung): 53.6 µM
- TGI (NCI-H226 lung): > 100 µM
- GI50 (NCI-H23 lung): 87.8 µM
- TGI (NCI-H23 lung): > 100 µM
- GI50 (NCI-H460 lung): 87.7 µM
- TGI (NCI-H460 lung): > 100 µM
- GI50 (NCI-H522 lung): 32.5 µM
- TGI (NCI-H522 lung): > 100 µM
- GI50 (NCI/ADR-RES ovarian): 43.1 µM
- TGI (NCI/ADR-RES ovarian): > 100 µM
- GI50 (OVCAR-3 ovarian): 22.5 µM
- TGI (OVCAR-3 ovarian): 60.5 µM
- GI50 (OVCAR-4 ovarian): 94.4 µM
- TGI (OVCAR-4 ovarian): > 100 µM
- GI50 (OVCAR-5 ovarian): > 100 µM
- TGI (OVCAR-5 ovarian): > 100 µM
- GI50 (OVCAR-8 ovarian): 31.4 µM
- TGI (OVCAR-8 ovarian): > 100 µM
- GI50 (PC-3 prostate): 24.6 µM
- TGI (PC-3 prostate): > 100 µM
- GI50 (RPMI-8226 leukemia): 16.4 µM
- TGI (RPMI-8226 leukemia): 44.3 µM
- GI50 (RXF 393 renal): 15 µM
- TGI (RXF 393 renal): > 100 µM
- GI50 (SF-268 CNS): > 100 µM
- TGI (SF-268 CNS): > 100 µM
- GI50 (SF-295 CNS): 33.2 µM
- TGI (SF-295 CNS): > 100 µM
- GI50 (SF-539 CNS): 75.1 µM
- TGI (SF-539 CNS): > 100 µM
- GI50 (SK-MEL-2 melanoma): 99.2 µM
- TGI (SK-MEL-2 melanoma): > 100 µM
- GI50 (SK-MEL-28 melanoma): > 100 µM
- TGI (SK-MEL-28 melanoma): > 100 µM
- GI50 (SK-MEL-5 melanoma): 19 µM
- TGI (SK-MEL-5 melanoma): > 100 µM
- GI50 (SK-OV-3 ovarian): > 100 µM
- TGI (SK-OV-3 ovarian): > 100 µM
- GI50 (SN12C renal): 55.1 µM
- TGI (SN12C renal): > 100 µM
- GI50 (SNB-19 CNS): > 100 µM
- TGI (SNB-19 CNS): > 100 µM
- GI50 (SNB-75 CNS): 57.3 µM
- TGI (SNB-75 CNS): > 100 µM
- GI50 (SR leukemia): 11.7 µM
- TGI (SR leukemia): 28.9 µM
- GI50 (SW-620 colon): 47.1 µM
- TGI (SW-620 colon): > 100 µM
- GI50 (T-47D breast): > 100 µM
- TGI (T-47D breast): > 100 µM
- GI50 (TK-10 renal): 40.1 µM
- TGI (TK-10 renal): > 100 µM
- GI50 (U251 CNS): 40.4 µM
- TGI (U251 CNS): > 100 µM
- GI50 (UACC-257 melanoma): 32.2 µM
- TGI (UACC-257 melanoma): > 100 µM
- GI50 (UACC-62 melanoma): 25.4 µM
- TGI (UACC-62 melanoma): > 100 µM
- GI50 (UO-31 renal): 39.6 µM
- TGI (UO-31 renal): > 100 µM

Source: PubChem BioAssay (NCI)
